{"source": "patent US20250263441A1", "about": "(Metanovas Biotech Inc., priority 2024, published 2025)", "assay_type_in_all_cases": "cell-based", "key": {"[1]": {"test_system": "Mouse macrophage RAW264.7 cells", "experiment": "RT-qPCR of inflammation markers in LPS-stimulated RAW264.7 cells", "settings": "LPS 10 ng/ml, 24 hours; repeated experiments", "protocol": "(1) Mouse macrophage RAW264.7 cells were cultured in DMEM supplemented with 10% fetal bovine serum (FBS) and 1% penicillin and streptomycin (P/S) at 37° C. in a 5% CO2 incubator.\n(2) 5×10^4 mouse-derived RAW264.7 macrophages were placed in 12-well cell culture plates and cultured for 24 hours. Then, 20 μL of PBS (negative control), Dexamethasone (positive control), and the test peptide were added to the wells for incubation for 2 hours. Afterward, 10 ng/ml of lipopolysaccharide (LPS) was mixed with RAW264.7 cells and incubated for 24 hours.\n(4) The cells were collected, and total RNA was isolated and extracted, reverse transcribed, and subjected to RT-qPCR to detect inflammation markers, including TNF-α, IL-1β, IL-6/10, CCL2, IFN-γ, iNOS, and GAPDH.\n3. After treating RAW264.7 cells with AMP-33, RT-qPCR was used to detect the levels of IL-6 and IL-1ß mRNA."}, "[2]": {"test_system": "Escherichia coli (ATCC: 25922)", "experiment": "Inhibitory effect of AMP-33 on Escherichia coli (viability, OD 630 nm)", "settings": "for Viability of Escherichia coli: 24 hours, repeated experiments", "protocol": "(§1) (1) Staphylococcus aureus and Escherichia coli were inoculated into LB liquid medium and cultured overnight under aerobic conditions at 37° C. and […] on a shaker.\n(§2) (2) 200 μL of LB liquid culture medium and a predetermined concentration of peptide AMP-33 were added to a 96-deep-well plate. Then, 10 μL of the Staphylococcus aureus/Escherichia coli solution was inoculated (mixed well before inoculation).\n(§3) (3) After incubating at […] for 24 hours on a shaking table at 37° C., the turbidity of the bacterial solution was observed. A volume of 100 μL of the solution was taken, and the OD at 630 nm was measured using an enzyme-linked immunosorbent assay (ELISA) reader (after multiple blows and mixing).\n(§4) [formula] • OD Measurement: OD value of the test peptide. • ODneg: OD value with no bacterial inoculation, containing only […] medium. • ODpos: OD value with bacterial inoculation and without inhibitors."}, "[3]": {"test_system": "Propionibacterium acnes (ATCC: 6919)", "experiment": "Inhibitory effect of AMP-33 on Propionibacterium acnes (viability, OD 630 nm)", "design": "Viability of Propionibacterium acnes: unit: %", "settings": "for Viability of Propionibacterium acnes: 48 hours, repeated experiments", "protocol": "(1) Propionibacterium acnes was inoculated into Wilkins Chalgren liquid medium and cultured overnight under anaerobic conditions at 37° C. (Labiophy HL-B fully automated anaerobic workstation).\n(2) 200 μL of the Wilkins Chalgren liquid culture medium and a predetermined concentration of the peptide AMP-33 were added to a 96-deep-well plate. Then, 10 μL of Propionibacterium acnes was inoculated (mix well before inoculation).\n(3) After 48 hours of cultivation under anaerobic conditions at 37° C., the turbidity of the bacterial solution was observed. Then, 100 μL of the solution was taken, and the OD at 630 nm was measured using the enzyme-linked immunosorbent assay (ELISA) reading plate (after multiple blows and mixing).\nas §4"}, "[4]": {"test_system": "Staphylococcus aureus (ATCC: 25913)", "experiment": "Inhibitory effect of AMP-33 on Staphylococcus aureus (viability, OD 630 nm)", "settings": "for Viability of Staphylococcus aureus: 24 hours, repeated experiments", "protocol": "as §1, §2, §3, §4"}, "[5]": {"test_system": "Candida albicans", "experiment": "Minimum inhibitory concentration on Candida albicans (liquid culture)", "settings": "37° C., 24 to 48 hours", "protocol": "Primary screening of liquid culture: the peptides in Examples 1 to 2 were dissolved in pure water to a concentration of 100 μg/mL. Using a micropipette, 10 μL of the peptides were added to a new 96-well plate in order from left to right, starting from the second compartment. Positive and negative controls were established for use. The 96-well plates were arranged vertically, and the peptide concentrations of the control groups were the same as those of the antimicrobial peptide. The control groups consisted of: pure water and bacteria, antimicrobial peptide FK13 and bacteria, and antimicrobial peptide HPA3NT3 and bacteria. An aseptic medium was used. The amino acid sequence of FK13 is […] (SEQ ID NO: 5), and the amino acid sequence of HPA3NT3 is […] (SEQ ID NO: 6).\nIf a 96-deep-well plate was used to culture bacteria, an additional 100 μL of sterile medium was added to all wells.\nCandida albicans was inoculated in LB medium with normal oxygen concentration (21%) for 48 hours. […] clones were picked and incubated in LB medium at 37° C. with normal oxygen concentration (21%) for 48 hours. The bacterial concentration was measured and diluted to 107 CFU/mL with culture medium for use.\nThe prepared fresh bacterial suspension was diluted to 105 CFU/mL and added to the 96-well plate with 90 μL of the bacterial suspension per well, and incubated at 37° C. with normal oxygen concentration for 24 to 48 hours. The absorbance at 630 nm was measured with a microplate reader, and the degree of turbidity was observed by the naked eye.\n(iv) Repetition of Operations: The Operations in (iii) were Repeated Twice, and the Decision to Perform a Third Repetition was Based on the Reproducibility of the Experiment."}, "[6]": {"test_system": "rabbit blood erythrocytes", "experiment": "Measurement of hemolytic concentration", "settings": "for Hemolysis rate: 37° C., 1 hour, replicate wells", "protocol": "4 mL of 2% rabbit blood erythrocytes were washed twice with 4 mL PBS and centrifuged at 3000 rpm for 5 minutes. The supernatant was discarded, and the rabbit blood erythrocytes were resuspended in 4 mL PBS. 160 μg of the peptides from Examples 1 to 2, FK13, and HPA3NT3 were independently dissolved in 1 mL PBS buffer to prepare the peptide mother solutions with a concentration of 160 μg/mL. Subsequently, the peptide mother solutions were diluted with PBS buffer to concentrations of 80 μg/mL, 64 μg/mL, 32 μg/mL, 16 μg/mL, and 8 μg/mL. 100 μL of the 2% rabbit blood erythrocytes and 100 μL of different concentrations of peptides (80 μg/mL, 64 μg/mL, 32 μg/mL, 16 μg/mL, 8 μg/mL) were added to each well of a 96-well plate. In the negative control, 100 μL of PBS buffer was added, while in the positive control, 100 μL of 0.1% (w/v) Triton X-100 was added. Three replicate wells were set up for each group and incubated at 37° C. for 1 hour. The 96-well plate was then removed, centrifuged at 3000 rpm for 5 minutes, and 100 μL of supernatant was aspirated and transferred to a new 96-well plate. The absorbance was measured at 540 nm using an enzyme meter. Hemolysis rate (%)=((Absorbancesample−Absorbancenegative)/(Absorbancepositive−Absorbancenegative))*100%."}}, "note": "Where “and” joins values, the source holds several entries; their conditions need not be identical. Equal entries are not always repeated.", "data": [{"substance": "Example 2: LSKWLKKLGKLLAG (designated as AMP33)", "values": [{"measurement": "CCL-2 mRNA level", "setting": "[1]", "value": "0.51 and 0.52 and 0.58"}, {"measurement": "COX-2 mRNA level", "setting": "[1]", "value": "0.71 and 0.58 and 1.16"}, {"measurement": "IL-1β mRNA level", "setting": "[1]", "value": "0.40 and 0.45 and 0.77"}, {"measurement": "IL-6 mRNA level", "setting": "[1]", "value": "0.96 and 0.49 and 0.95"}, {"measurement": "IL-10 mRNA level", "setting": "[1]", "value": "1.80 and 2.50 and 1.32"}, {"measurement": "Viability of Escherichia coli", "setting": "[2]; 1 μg/mL", "value": "110.11 and 91.93 and 82.94"}, {"measurement": "Viability of Escherichia coli", "setting": "[2]; 2 μg/mL", "value": "89.71 and 90.4 and 98.53"}, {"measurement": "Viability of Escherichia coli", "setting": "[2]; 4 μg/mL", "value": "86.48 and 70.83 and 70.35"}, {"measurement": "Viability of Escherichia coli", "setting": "[2]; 8 μg/mL", "value": "78.87 and 50.46 and 73.2"}, {"measurement": "Viability of Escherichia coli", "setting": "[2]; 25 μg/mL", "value": "74.99 and 38.97 and 51.39"}, {"measurement": "inhibition of Escherichia coli", "setting": "[2]; 25 ppm", "value": "over 99%"}, {"measurement": "Viability of Propionibacterium acnes", "setting": "[3]; 1 μg/mL", "value": "94.82 and 113.75 and 94.03"}, {"measurement": "Viability of Propionibacterium acnes", "setting": "[3]; 2 μg/mL", "value": "79.37 and 65.48 and 68.87"}, {"measurement": "inhibition of Propionibacterium acnes", "setting": "[3]; 4 ppm", "value": "over 90%"}, {"measurement": "Viability of Staphylococcus aureus", "setting": "[4]; 1 μg/mL", "value": "117.78 and 116.41 and 116.45"}, {"measurement": "Viability of Staphylococcus aureus", "setting": "[4]; 2 μg/mL", "value": "121.60 and 104.84 and 102.77"}, {"measurement": "Viability of Staphylococcus aureus", "setting": "[4]; 4 μg/mL", "value": "88.75 and 109.74 and 132.77"}, {"measurement": "Viability of Staphylococcus aureus", "setting": "[4]; 8 μg/mL", "value": "98.53 and 99.19 and 97.03"}, {"measurement": "inhibition of Staphylococcus aureus", "setting": "[4]; 50 ppm", "value": "over 99%"}, {"measurement": "Minimum inhibitory concentration on Candida albicans", "setting": "[5]", "value": 25, "unit": "µg/mL"}, {"measurement": "Hemolysis rate", "setting": "[6]; 8 μg/mL", "value": "3.6% and 7.9% and 23%"}, {"measurement": "Hemolysis rate", "setting": "[6]; 16 μg/mL", "value": "2.6% and 1.7% and −0.4%"}, {"measurement": "Hemolysis rate", "setting": "[6]; 32 μg/mL", "value": "0.6% and 4.6% and 3.3%"}, {"measurement": "Hemolysis rate", "setting": "[6]; 64 μg/mL", "value": "0.7% and −0.8% and −2.0%"}, {"measurement": "Hemolysis rate", "setting": "[6]; 80 μg/mL", "value": "10.1% (2×) and 11.1%"}, {"measurement": "Minimum hemolytic concentration", "setting": "[6]; rabbit erythrocytes", "value": 64.0, "unit": "µg/mL"}]}]}
